Values quoted from earlier work in patent publication US20080063637A1, “Regulation of oncogenesis by Akt-specific isoforms” (The Trustees of Tufts College, priority 2006, published 2008).

Columns and labels:
[1] = tested on: corresponding Akt isoforms (phosphorylation by PDK1); conditions: Barnett et al. 2005
[2] = tested on: LNCap prostate cancer cells; conditions: Barnett et al. 2005

In the case of `O=c1[nH]c2ccccc2n1C1CCN(Cc2ccc(-c3nc4cc5nc[nH]c5cc4nc3-c3ccccc3)cc2)CC1` [Akt-I-1,2], the “phosphorylation and activation of the corresponding Akt isoforms by PDK1” value [1] is listed as “blocked” and the TRAIL-induced apoptosis [2] is listed as “promote”.
